Results as given in patent US10512624B2, “Long-chain amphipathic dicarboxylic acids for treatment of diabetes type-1” (Syndromex Ltd., priority 2016, dated 2019).

Legend:
STZ diabetic rats = assay: Anti-diabetic efficacy in streptozotocin (STZ) diabetic rats (FBG, IPGTT, IPITT, fluid balance, insulin/glucagon content); assay type: in vivo, rat; conditions: sub-therapeutic insulin NPH 3 u/kg b.i.d alone, STZ diabetic rats
Method: Male Sprague-Dawley (SD) rats weighing 250-275 gr were fed ad libitum (Harlan Teklad 2018), had free access to water, and were kept on a 12:12 h light:dark cycle. Experimental type 1 diabetes (T1D) was induced in overnight fasted rats by a single intra-peritoneal injection of streptozotocin (STZ, 60 mg/kg body weight, Sigma Aldrich) freshly prepared in 0.1 M of cold citrate buffer (pH 4.5), followed by oral 10% glucose solution for the next 24 hours to overcome STZ-induced acute hypoglycemia. STZ diabetic rats (defined as having a fasting blood glucose (FBG) level higher than 300 mg/dl) were selected for further studies.
SHAM (control) rats were injected with 0.1 M of cold citrate buffer (pH 4.5). STZ diabetic or SHAM rats were dosed twice daily by gavage (orally) with 1% CMC (Sigma Aldrich C5678), or with HOOC—C(CH3)2—(CH2)12—C(CH3)2—COOH (2,2,15,15-tetramethylhexadecane-1,16-dioic acid) also termed herein “MEDICA16αα”, “Medica16αα” or M16αα(15 mg/kg body weight) suspended in 1% CMC, or injected intraperitoneal (i.p.) with Neutral Protamine Hagedorn (NPH) insulin (3 u/kg body weight b.i.d), as indicated.
(§1) Administering a combination of Medica16αα and insulin was performed by treating STZ diabetic rats (FBG >300 mg/dl) with oral MEDICA16αα(15 mg/kg b.i.d) for five consecutive days, then MEDICA16αα-responsive rats were further treated with MEDICA16αα(15 mg/kg b.i.d) for 10 additional consecutive days (“STZ/MEDICA Res”), and MEDICA16αα non-responsive rats (FBG >250 mg/dl) were further treated for 10 additional consecutive days with either insulin Neutral Protamine Hagedorn (NPH) (3 u/kg b.i.d subcutaneously) (“STZ/NPH”), or with insulin NPH (3 u/kg b.i.d subcutaneously in combination with oral MEDICA16αα(15 mg/kg b.i.d) (“STZ/MEDICA NPH”).
Tail vein FBG was verified daily by a glucometer (Glucometer®, Accu-Check® Performa, Roche Diagnostics). Urine secretion, food and water consumption were measured in standard metabolic cages (Tecniplast™ Metabolic Cage Systems for Rodents) for 48 hour periods. Samples were collected and recorded every 12 hour.
Overnight fasted rats were injected i.p (1 gr glucose/kg bw) with 20% dextrose solution (Teva Medical). Tail vein blood was sampled on 0, 30, 60, 90 and 120 minutes following glucose injection.
Fasted rats (5 hours fast) were injected i.p (2 u/kg bw) with HumulinR insulin (Eli Lilly). Tail blood glucose levels were measured by glucometer at 0, 15, 30, 60, and 120 min following insulin injection.
(§2) Pancreas and plasma insulin and glucagon content were determined by insulin (Millipore, Cat #RI-13K) and glucagon (Millipore, Cat # GL-32K) radioimmunoassay (RIA) kits. cAMP levels were measured by cAMP kit (Arbor Assays, DetectX Cat # K019-H1).

hepatic gluconeogenesis = assay: Suppression of hepatic gluconeogenesis in STZ diabetic rats (RT-PCR, Western blot, cAMP kit); assay type: in vivo, rat
Method: as §1
Sampled frozen tissue was homogenized (Polytron) in lysis buffer (50 mM Tris HCl, pH 8.0, 1% Triton X-100, 1 mM EGTA, 1 mM EDTA, 150 mM NaCl, 5 mM NaPPi, 50 mM NaF, 1 mM PMSF, 1 mM Na Vanadate, 40 nM bpVfan and protease inhibitor cocktail (Sigma)), and centrifuged for 15 min at 12,500 rpm.
Protein lysates were prepared in sodium dodecyl sulfate (SDS) sample buffer (62 mM Tris (pH 6.8), 2.3% SDS, […] mercaptoethanol, 10% glycerol), and were subjected to SDS-PAGE, electro-transferred onto cellulose nitrate membranes (Schleicher & Schuell) and probed with the indicated first antibody, followed by HRP-labeled second antibody. Protein concentration was determined by BCA (Thermo Scientific). Bands were detected by ECL, and the intensity of individual bands was determined by densitometry using ImageJ 1.48 v software.
Sampled frozen tissue was homogenized (Polytron) in lysis buffer (50 mM Hepes (pH 7.4), 150 mM NaCl, 10% Glycerol, 1.5 mM MgCl2, 1 mM EGTA, 1% Triton, 50 mM β-glycerolphosphate, 25 mM NaF, 1 mM Na-vanadate, 40 nM bpVphen, protease inhibitor mix (Sigma) and 17.5 mg/ml octyl beta-D-glucopyranoside (Sigma)). Lysates were kept on ice for 30 min and centrifuged at 12000 rpm for 15 min. Lysates ([…]) were incubated for 4 h with protein A/G beads (Santa Cruz Biotechnology) pre-loaded with the indicated antibody. The immune-precipitate was rinsed 3 times with washing buffer (20 mM Hepes (pH 7.4), 150 mM NaCl, 0.1% Tx-100, 10% glycerol), re-suspended in SDS sample buffer, boiled for 8 min, and analyzed by SDS-PAGE.
Total RNA was prepared using the TRI reagent (Sigma Aldrich). First-strand cDNA used as template was synthesized by reverse transcription using oligo(dT) as primer and the Reverse-iTMAX First Strand Kit (ABgene, Epson). Glucose-6-phosphatase (G6Pase) and phosphoenolpyruvate carboxykinase (PEPCK) transcripts normalized by tubulin were quantified by real-time PCR (Rotor Gene RG-3000A) using SYBER green MasterMix (Absolute Syber Green ROX Mix, ABgene) and the following primers: […]
as §2

[1] = tested on: adipose adenylate cyclase; conditions: cited from earlier work
[2] = tested on: STZ diabetic rat model, NOD mouse model; conditions: cited from earlier work
T1D patients = conditions: insulin-treated (>1 u/kg body weight/day) T1D patients, meta-analysis (ref 12); cited from earlier work

insulin NPH: Neutral Protamine Hagedorn (NPH) insulin, intermediate-acting insulin, used at sub-therapeutic dose 3 u/kg b.i.d
controlling glycemia (FBG, IPGTT, IPITT, fluid balance) (STZ diabetic rats): without any effect | hepatic phospho-CREB(Ser179) (hepatic gluconeogenesis): ineffective | hepatic phospho-CRTC2(Ser171) (hepatic gluconeogenesis): not | hepatic glucose-6-phosphatase and PEPCK transcripts (hepatic gluconeogenesis; compared with STZ/CMC and SHAM/CMC): essentially unaffected

CC(C)(CCCCCCCCCCC(C)(C)CC(=O)O)CC(=O)O [MEDICA16ββ, 3,3,14,14-tetramethylhexadecane-1,16-dioic acid]
adipose adenylate cyclase [1]: inhibit

CN(C)C(=N)N=C(N)N [metformin]
normalizing STZ-induced diabetes, or preventing or delaying autoimmune T1D in NOD mouse [2]: ineffective or only marginally effective | reduction in daily insulin usage (T1D patients): 1.4 u/d
